Target: KRasG12C (M1-K169, biotinylated on the N-terminus) (Homo sapiens (Human), UniProt P01116, G12C)
Test: Covalent competition assay: scintillation proximity assay (SPA) quantifying covalent modification of KRASG12C
Assay type: binding
Conditions: competition with radiolabeled covalent probe (Compound B/Compound A), 2 hours incubation, 10 nM KRasG12C
In short: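 Scintillation proximity readout after streptavidin bead capture (30 min) of biotinylated KRasG12C(M1-K169):GDP, 10 nM final, which was covalently labelled over 2 h by 25 nM radio-probe plus 475 nM cold probe unless blocked by compound.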

Row | IC50 [nM] | Compound
1 | 894 | C=CC(=O)N1CC2(CC(n3nc(N4CCn5ccnc5C4)c(-c4c(Cl)c(C)cc5[nH]ncc45)c3C)C2)C1 (single isomer, unassigned) [Example 19a, 1-(6-(4-(5-chloro-6-methyl-1H-indazol-4-yl)-3-(5,6-dihydroimidazo[1,2-a]pyrazin-7(8H)-yl)-5-methyl-1H-pyrazol-1-yl)-2-azaspiro[3.3]heptan-2-yl)prop-2-en-1-one]
2 | > 5000 | C=CC(=O)N1CC2(CC(n3nc(N4CCN(CCO)CC4(C)C)c(-c4c(Cl)c(C)cc5[nH]ncc45)c3C)C2)C1 (single isomer, unassigned) [Example 163a, 1-(6-(4-(5-chloro-6-methyl-1H-indazol-4-yl)-3-(4-(2-hydroxyethyl)-2,2-dimethylpiperazin-1-yl)-5-methyl-1H-pyrazol-1-yl)-2-azaspiro[3.3]heptan-2-yl)prop-2-en-1-one]
3 | 1600 | C=CC(=O)N1CC2(CC(n3nc(N4CCN(C5COC5)C[C@]4(C)CC)c(-c4c(Cl)c(C)cc5[nH]ncc45)c3C)C2)C1 (single isomer, unassigned) [Example 133a]
4 | 13 | C=CC(=O)N1CC2(CC(n3nc(N4CC[C@@H](CN5C[C@@H]6C[C@H]5CS6(=O)=O)CC4(C)C)c(-c4c(Cl)c(Cl)cc5[nH]ncc45)c3C)C2)C1 (single isomer, unassigned) [Example 249b]
5 | > 5000 | C=CC(=O)N1CC2(CC(n3nc(N4CC[C@@H](CN5CCN6C(=O)N(C)CC6C5)CC4(C)C)c(-c4c(Cl)c(Cl)cc5[nH]ncc45)c3C)C2)C1 (single isomer, unassigned) [Example 263a]
6 | 1400 | C=CC(=O)N1CC2(CC(n3nc(N4Cc5cnn(C)c5C4)c(-c4c(Cl)c(C)cc5[nH]ncc45)c3C)C2)C1 [Example 12, 1-(6-(4-(5-chloro-6-methyl-1H-indazol-4-yl)-5-methyl-3-(1-methyl-4,6-dihydropyrrolo[3,4-c]pyrazol-5(1H)-yl)-1H-pyrazol-1-yl)-2-azaspiro[3.3]heptan-2-yl)prop-2-en-1-one]
7 | > 5000 | C=CC(=O)N1CC2(CC(n3nc(N4CC[C@@H](CN(C)CC(=O)N5CCCC5)CC4(C)C)c(-c4c(Cl)c(Cl)cc5[nH]ncc45)c3C)C2)C1 (single isomer, unassigned) [Example 252a]
8 | 358 | C=CC(=O)N1CC2(CC(n3nc(N4CCC(N5C[C@H]6C[C@@H]5CN6S(C)(=O)=O)CC4(C)C)c(-c4c(Cl)c(Cl)cc5[nH]ncc45)c3C)C2)C1 (single isomer, unassigned) [Example 212a]
9 | 3800 | C=CC(=O)N1CC2(CC(n3nc(N4CCC(N5CCOCC5)CC4(C)C)c(-c4c(Cl)c(C)cc5[nH]ncc45)c3C)C2)C1 (single isomer, unassigned) [Example 34a, 1-(6-(4-(5-chloro-6-methyl-1H-indazol-4-yl)-3-(2,2-dimethyl-4-morpholinopiperidin-1-yl)-5-methyl-1H-pyrazol-1-yl)-2-azaspiro[3.3]heptan-2-yl)prop-2-en-1-one]
10 | 172 | C=CC(=O)N1CC2(CC(n3nc(N4CCN(C5COC5)C[C@]4(C)CC)c(-c4c(Cl)c(C)cc5[nH]nc(N)c45)c3C)C2)C1 (single isomer, unassigned) [Example 158b]
11 | 558 | C=CC(=O)N1CC2(CC(n3nc(N4CCN(C5CCOCC5)C[C@]4(C)COC)c(-c4c(Cl)c(C)cc5[nH]nc(N)c45)c3C)C2)C1 (single isomer, unassigned) [Example 90b]
12 | 168 | C=CC(=O)N1CC2(CC(n3nc(N4CCC(CN5CCS(=O)(=O)CC5)CC4(C)C)c(-c4c(Cl)c(Cl)cc5[nH]ncc45)c3C)C2)C1 (single isomer, unassigned) [Example 236a, 1-(6-(4-(5,6-dichloro-1H-indazol-4-yl)-3-(4-((1,1-dioxidothiomorpholino)methyl)-2,2-dimethylpiperidin-1-yl)-5-methyl-1H-pyrazol-1-yl)-2-azaspiro[3.3]heptan-2-yl)prop-2-en-1-one]
13 | 32 | C=CC(=O)N1CC2(CC(n3nc(N4CCN(C5CCOCC5)CC45CCC5)c(-c4c(Cl)c(C)cc5[nH]ncc45)c3C)C2)C1 (single isomer, unassigned) [Example 130b, 1-(6-(4-(5-Chloro-6-methyl-1H-indazol-4-yl)-5-methyl-3-(8-(tetrahydro-2H-pyran-4-yl)-5,8-diazaspiro[3.5]nonan-5-yl)-1H-pyrazol-1-yl)-2-azaspiro[3.3]heptan-2-yl)prop-2-en-1-one]
14 | 5 | C=CC(=O)N1CC2(CC(n3nc(N4CC[C@@H](CN5CCN(C)[C@H](CO)C5)CC4(C)C)c(-c4c(Cl)c(Cl)cc5[nH]ncc45)c3C)C2)C1 (single isomer, unassigned) [Example 270b]
15 | 1300 | C=CC(=O)N1CC2(CC(n3nc(N4CC[C@@H](CN5CCN(CCOC)C(=O)C5)CC4(C)C)c(-c4c(Cl)c(Cl)cc5[nH]ncc45)c3C)C2)C1 (single isomer, unassigned) [Example 256a]
16 | 1500 | C=CC(=O)N1CC2(CC(n3nc(N4CC[C@@H](CN(CCO)CCOC)CC4(C)C)c(-c4c(Cl)c(Cl)cc5[nH]ncc45)c3C)C2)C1 (single isomer, unassigned) [Example 253a]
17 | 8 | C=CC(=O)N1CC2(CC(n3nc(N4CCC(CN5CC6COCC6C5)CC4(C)C)c(-c4c(Cl)c(Cl)cc5[nH]ncc45)c3C)C2)C1 (single isomer, unassigned) [Example 227b, 1-(6-(4-(5,6-dichloro-1H-indazol-4-yl)-3-(2,2-dimethyl-4-((tetrahydro-1H-furo[3,4-c]pyrrol-5(3H)-yl)methyl)piperidin-1-yl)-5-methyl-1H-pyrazol-1-yl)-2-azaspiro[3.3]heptan-2-yl)prop-2-en-1-one]
18 | 60 | C=CC(=O)N1CC2(CC(n3nc(N4CCN(CCOC)CC4(C)C)c(-c4c(Cl)c(C)cc5[nH]ncc45)c3C)C2)C1 (single isomer, unassigned) [Example 170b, 1-(6-(4-(5-chloro-6-methyl-1H-indazol-4-yl)-3-(4-(2-methoxyethyl)-2,2-dimethylpiperazin-1-yl)-5-methyl-1H-pyrazol-1-yl)-2-azaspiro[3.3]heptan-2-yl)prop-2-en-1-one]
19 | 793 | C=CC(=O)N1CC2(CC(n3nc(N4CC[C@@H](CN5CCOC6(COC6)C5)CC4(C)C)c(-c4c(Cl)c(C)cc5[nH]ncc45)c3C)C2)C1 (single isomer, unassigned) [Example 299a]

Row | Compound | IC50 [nM]
20 | C=CC(=O)N1CC2(CC(n3nc(N4C5CCC4CN(C(C)=O)C5)c(-c4c(Cl)c(C)cc5[nH]ncc45)c3C)C2)C1 (single isomer, unassigned) [Example 57a, 1-(6-(3-(3-acetyl-3,8-diazabicyclo[3.2.1]octan-8-yl)-4-(5-chloro-6-methyl-1H-indazol-4-yl)-5-methyl-1H-pyrazol-1-yl)-2-azaspiro[3.3]heptan-2-yl)prop-2-en-1-one] | 34700
21 | C=CC(=O)N1CC2(CC(n3nc(N4CCC(CN5CC6CC(C5)O6)CC4(C)C)c(-c4c(Cl)c(Cl)cc5[nH]ncc45)c3C)C2)C1 (single isomer, unassigned) [Example 229b, 1-(6-(3-(4-((6-oxa-3-azabicyclo[3.1.1]heptan-3-yl)methyl)-2,2-dimethylpiperidin-1-yl)-4-(5,6-dichloro-1H-indazol-4-yl)-5-methyl-1H-pyrazol-1-yl)-2-azaspiro[3.3]heptan-2-yl)prop-2-en-1-one] | 11
